The species named for assay [1] is Mus musculus. As to the kind of experiment: Induction of proliferation of mouse Shionogi cells at 10 pM. In kind it is functional.
The species named for assay [2] is Mus musculus. As to the kind of experiment: Inhibition of 5-alpha-dihydrotestosterone-stimulated growth of mouse Shionogi cells at 1 uM. In kind it is functional.

Activity calls are given as the source filed them. The calls are words filed in the database; no cut-off is given here.

For the molecule `C[C@]12CCC(=O)C[C@@H]1CC[C@@H]1[C@@H]2CC[C@]2(CCOCc3cc(F)cc(F)c3)[C@@H](O)CC[C@@H]12`, in the assay filed under Mus musculus [1], the result was Active. For the same molecule, the result in the assay filed under Mus musculus [2] was inactive.

Turning to `C[C@]12CCC(=O)C[C@@H]1CC[C@@H]1[C@@H]2CC[C@]2(C)[C@@H](O)CC[C@@H]12`, in the assay listed under Mus musculus [1], the outcome was Active.
